{"source": "patent US20240398787A1", "about": "“TREATMENT OF MAJOR DEPRESSIVE DISORDER” (AbbVie Inc., priority 2021, published 2024)", "assay_type_in_all_cases": "in vivo, human", "key": {"[1]": {"test_system": "patients with major depressive disorder (MDD)", "assay": "Hamilton Depression Rating Scale-17 (HAMD-17) total score, Clinical Study A", "conditions": "ANCOVA and LOCF; for LSMD vs placebo, HAMD-17: week 6", "description": "(§1) A global, multicenter, randomized, double-blind (DB), placebo-controlled, parallel-group, fixed-dose study compared cariprazine 1.5 mg/day and cariprazine 3 mg/day with placebo as an adjunctive treatment to ongoing ADT in outpatients with a diagnosis of MDD (via the Diagnostic and Statistical Manual of Mental Disorders, Fifth Edition [DSM-5]) having an inadequate response, as measured by the modified Antidepressant Treatment Response Questionnaire (ATRQ), to 1 to 3 antidepressants administered during the current episode at an adequate dose and adequate duration. Adequate dose was defined as a dose above the minimum labeled dose (per package insert). Adequate duration was defined as continuous ADT treatment for at least 6 weeks, with a minimum of 3 of 6 weeks above the minimal dose.\n(§2) The study consisted of up to 14 days screening (with up to an additional 7 days of needed) and washout of prohibited medications followed by 6 weeks of double-blind (DB) treatment followed by a 4-week safety follow-up. At the end of the screening period, patients meeting the entry criteria for the study were randomized (1:1:1) to 1 of 3 double-blind treatment groups. Study treatment groups were: cariprazine 1.5 mg/day+antidepressant therapy and cariprazine 3 mg/day+antidepressant therapy. The control group received matching placebo+antidepressant therapy.\n(§3) Dosage/Dose Regimen: Investigational product (cariprazine or placebo) in the form of capsules packaged in blister packs will be provided. No investigational product was administered during the screening/washout period; patients continued the same antidepressant and dose they were on at screening. Patients were taking more than one antidepressant at screening, regardless of the indication, discontinued all other antidepressants prior to baseline (Visit 2). During the double-blind treatment period (6 weeks), patients were administered 1 capsule orally per day in addition to their ongoing ADT. Patients in the 1.5 mg/day+ADT arm were administered 1.5 mg+ADT starting at Visit 2 (Week 0). Patients in the 3 mg/day+ADT arm were administered 1.5 mg+ADT starting at Visit 2 (Week 0) for 2 weeks and then titrate to 3 mg/day+ADT starting at Visit 4 (Week 2). Patients were supplied with identically appearing capsules of either cariprazine 1.5 mg, cariprazine 3 mg, or placebo.\nA randomized, double-blind, placebo-controlled, multicenter trial with 759 participants was conducted in United States, Bulgaria, Estonia, Germany, Hungary, Ukraine, and the United Kingdom. […]"}, "[2]": {"test_system": "patients with major depressive disorder (MDD)", "assay": "Hamilton Anxiety Rating Scale (HAM-A) total score, Clinical Study A", "conditions": "for LS mean change from baseline to week 6, HAM-A / LSMD vs placebo, HAM-A: MMRM; for HAM-A remission rate (total score ≤7) / HAM-A remission, odds ratio vs placebo / HAM-A response rate (≥50% score reduction from baseline) / HAM-A response, odds ratio vs placebo / LSMD vs placebo, HAM-A: week 6; for HAM-A remission rate (total score ≤7) / HAM-A remission, odds ratio vs placebo / HAM-A response rate (≥50% score reduction from baseline) / HAM-A response, odds ratio vs placebo: LOCF", "description": "as §1, §2, §3\n(§4) A randomized, double-blind, placebo-controlled, multicenter trial with 759 participants was conducted in United States, Bulgaria, Estonia, Germany, Hungary, Ukraine, and the United Kingdom. Following a screening period of up to 14 days (with up to an additional 7 days if needed), which included a washout of prohibited psychotropic medications except for ongoing ADT, patients with a partial response to their antidepressant monotherapy were randomized into three treatment groups (1:1:1). One group received cariprazine 1.5 mg/d+ADT, one received cariprazine 3.0 mg/d+ADT, and one group received placebo+ADT. All participants randomized to cariprazine began on 1.5 mg/d; cariprazine 1.5 mg/d patients remained at that dosage, while cariprazine 3.0 mg/d patients received 1.5 mg/d for 2 weeks and increased to 3.0 mg/d on day 15.\n(§5) The primary and secondary efficacy parameters were change from baseline to week 6 in Montgomery-Åsberg Depression Rating Scale (MADRS) total score and Clinical Global Impressions-Severity (CGI-S) score, respectively (screening, baseline, and weeks 1, 2, 4, and 6). Additional efficacy parameters (screening, baseline, and ≥1 double-blind visit) included: MADRS response (≥50% MADRS total score reduction) and remission (MADRS total score ≤10); change from baseline in HAMD-17 total score and Hamilton Anxiety Rating Scale (HAM-A) total score (32); and Clinical Global Impressions-Improvement (CGI-I) score and response (CGI-I score ≤2).\nThe Hamilton Anxiety Rating Scale (HAM-A) (Hamilton 1959) is a clinician-rated scale which consists of 14 items, each rated on a 5-point scale ranging from 0 (not present) to 4 (very severe). […]"}, "[3]": {"test_system": "patients with major depressive disorder (MDD)", "assay": "Clinical Global Impressions-Severity (CGI-S) score, Clinical Study A", "conditions": "MMRM; for LS mean change from baseline, CGI-S score / LSMD vs placebo, CGI-S score: week 6", "description": "as §1, §2, §3, §4, §5\nThe CGI-S (Guy 1976) is a clinician-rated scale that measures the overall severity of a patient's illness in comparison with the severity in other patients the physician has observed. […]"}}, "data": [{"compound": "CN(C)C(=O)N[C@H]1CC[C@H](CCN2CCN(c3cccc(Cl)c3Cl)CC2)CC1", "note": "[Cariprazine, trans-N-{4-[2-[4-(2,3-dichlorophenyl)piperazin-1-yl]ethyl]cyclohexyl}-N′,N′-dimethylurea]", "values": [{"measurement": "LS mean change from baseline to week 6, HAMD-17 total score", "setting": "[1]; 1.5 mg/d + ADT", "result": "−12.7"}, {"measurement": "LSMD vs placebo, HAMD-17", "setting": "[1]; 1.5 mg/d + ADT", "result": "−2.1"}, {"measurement": "LS mean change from baseline to week 6, HAMD-17 total score", "setting": "[1]; 3 mg/d + ADT", "result": "−11.9"}, {"measurement": "LSMD vs placebo, HAMD-17", "setting": "[1]; 3 mg/d + ADT", "result": "−1.2"}, {"measurement": "LS mean change from baseline to week 6, HAM-A", "setting": "[2]; 1.5 mg/d + ADT", "result": "−9.1"}, {"measurement": "HAM-A remission rate (total score ≤7)", "setting": "[2]; 1.5 mg/d + ADT", "result": 28.7, "unit": "%"}, {"measurement": "HAM-A remission, odds ratio vs placebo", "setting": "[2]; 1.5 mg/d + ADT", "result": 1.2}, {"measurement": "HAM-A response rate (≥50% score reduction from baseline)", "setting": "[2]; 1.5 mg/d + ADT", "result": 40.9, "unit": "%"}, {"measurement": "HAM-A response, odds ratio vs placebo", "setting": "[2]; 1.5 mg/d + ADT", "result": 1.3}, {"measurement": "LSMD vs placebo, HAM-A", "setting": "[2]; 1.5 mg/d + ADT", "result": "−1.3"}, {"measurement": "LS mean change from baseline to week 6, HAM-A", "setting": "[2]; 3 mg/d + ADT", "result": "−8.6"}, {"measurement": "HAM-A remission rate (total score ≤7)", "setting": "[2]; 3.0 mg/d + ADT", "result": 27.9, "unit": "%"}, {"measurement": "HAM-A remission, odds ratio vs placebo", "setting": "[2]; 3.0 mg/d + ADT", "result": 1.1}, {"measurement": "HAM-A response rate (≥50% score reduction from baseline)", "setting": "[2]; 3.0 mg/d + ADT", "result": 41.0, "unit": "%"}, {"measurement": "HAM-A response, odds ratio vs placebo", "setting": "[2]; 3.0 mg/d + ADT", "result": 1.3}, {"measurement": "LSMD vs placebo, HAM-A", "setting": "[2]; 3 mg/d + ADT", "result": "−0.8"}, {"measurement": "LS Mean (SE) change from baseline, CGI-S score", "setting": "[3]; 1.5 mg/day + ADT, week 1", "result": "−0.3 (0.1)"}, {"measurement": "LSMD (95% CI) vs placebo + ADT, CGI-S score", "setting": "[3]; 1.5 mg/day + ADT, week 1", "result": "−0.1 (−0.2, 0)"}, {"measurement": "LS Mean (SE) change from baseline, CGI-S score", "setting": "[3]; 1.5 mg/day + ADT, week 2", "result": "−0.7 (0.1)"}, {"measurement": "LSMD (95% CI) vs placebo + ADT, CGI-S score", "setting": "[3]; 1.5 mg/day + ADT, week 2", "result": "−0.1 (−0.2, 0.1)"}, {"measurement": "LS Mean (SE) change from baseline, CGI-S score", "setting": "[3]; 1.5 mg/day + ADT, week 4", "result": "−1.1 (0.1)"}, {"measurement": "LSMD (95% CI) vs placebo + ADT, CGI-S score", "setting": "[3]; 1.5 mg/day + ADT, week 4", "result": "−0.3 (−0.4, −0.1)"}, {"measurement": "LS mean change from baseline, CGI-S score", "setting": "[3]; 1.5 mg/day + ADT", "result": "−1.4 (0.1)"}, {"measurement": "LSMD vs placebo, CGI-S score", "setting": "[3]; 1.5 mg/day + ADT", "result": "−0.3 (−0.5, −0.1)"}, {"measurement": "LS Mean (SE) change from baseline, CGI-S score", "setting": "[3]; 3 mg/day + ADT, week 1", "result": "−0.3 (0.1)"}, {"measurement": "LSMD (95% CI) vs placebo + ADT, CGI-S score", "setting": "[3]; 3 mg/day + ADT, week 1", "result": "0 (−0.1, 0.1)"}, {"measurement": "LS Mean (SE) change from baseline, CGI-S score", "setting": "[3]; 3 mg/day + ADT, week 2", "result": "−0.6 (0.1)"}, {"measurement": "LSMD (95% CI) vs placebo + ADT, CGI-S score", "setting": "[3]; 3 mg/day + ADT, week 2", "result": "0 (−0.2, 0.1)"}, {"measurement": "LS Mean (SE) change from baseline, CGI-S score", "setting": "[3]; 3 mg/day + ADT, week 4", "result": "−1.0 (0.1)"}, {"measurement": "LSMD (95% CI) vs placebo + ADT, CGI-S score", "setting": "[3]; 3 mg/day + ADT, week 4", "result": "−0.1 (−0.3, 0.1)"}, {"measurement": "LS mean change from baseline, CGI-S score", "setting": "[3]; 3 mg/day + ADT", "result": "−1.3 (0.1)"}, {"measurement": "LSMD vs placebo, CGI-S score", "setting": "[3]; 3 mg/day + ADT", "result": "−0.2 (−0.4, 0)"}]}]}
